From patent publication US10183949B2, “Pyrimidinone derivative having autotaxin-inhibitory activity” (The University of Tokyo, priority 2014, dated 2019)

The compounds below were run against T1, Human autotaxin enzyme (Homo sapiens, UniProt Q13822) (assay: Evaluation of autotaxin inhibitor, 18:0 Lyso PC / choline assay (Test Example 2)). Conditions: autotaxin inhibition, IC50 class; read-out: Inhibitor activity.
T1 construct: purchased R&D System
Assay type: biochemical
Experimental: Solution B containing 100 mM Tris-HCl buffer (pH7.5), 150 mM NaCl, 5 mM MgCl2, and 0.05% Triton X-100 was prepared. Human autotaxin enzyme (purchased from R&D System) was diluted with Solution B, and 2.5 μl of which was added to a solution of test compound in DMSO. Furthermore, 2.5 μl of 200 μM 18:0 Lyso PC (purchased from Avanti Polar Lipids) in Solution B was added and allowed to react at room temperature for 2 hours. After completion of the reaction, 15 μl of the coline assay reagent. (100 mM Tris-HCl buffer (pH7.5), 5 mM. MgCl2, 77 μg/ml coline oxidase, 10 μg/ml peroxydase, 25μM 10-acetyl-3,7-dihydroxyphenoxazine, and excess autotaxin inhibitor) was added and allowed to react at room temperature for 20 minutes. The fluorescent dye Resorufin, which was produced by the reaction, was detected. The fluorescence was detected using ViewLux
(PerkinElmer, Inc.) with a excitation wavelength of 531 nm and a fluorescence wavelength of 598 nm.
The percent inhibition of the test compound was calculated by assuming the sample with no test compound as 0% inhibition and the sample with no enzyme as 100% inhibition, and the percent inhibitions at different concentrations of the test compound were plotted to obtain a concentration-dependent curve.

| SMILES | IC50 [nM] |
| --- | --- |
| CC(=O)Nc1cc(Cl)ccc1-c1cc(=O)n(CC(=O)O)cn1 [Compound I-0246] | ≥ 1000 |
| CSc1nc(-c2ccc(Cl)cc2NC(C)=O)cc(=O)n1CC(=O)NCC(C)(C)O [Compound I-0250] | 10 to 100 |

More lines, now with the values ahead:

| IC50 [nM] | SMILES |
| --- | --- |
| 10 to 100 | CC(=O)Nc1cc(Cl)ccc1-c1cc(=O)n(CC(=O)NC2(C#N)CC2)c(C)n1 [Compound I-0248] |
| ≥ 1000 | N#CC1(NC(=O)Cn2c(CCCC(F)(F)F)nc(N3CCC(C(F)(F)F)CC3)c(F)c2=O)CC1 [Compound I-0241] |
| 10 to 100 | COC(=O)Cn1c(CCCC(F)(F)F)nc(-c2ccc(C(F)(F)F)cc2)cc1=O [Compound I-0254] |

Same assay, conditions: human autotaxin enzyme, 18:0 Lyso PC substrate, choline assay, room temperature 2 hours; read-out: Inhibitor activity (IC50)

| SMILES | IC50 [nM] |
| --- | --- |
| COC(=O)Nc1cc(Cl)ccc1-c1cc(=O)n(CC(=O)NCCNS(C)(=O)=O)c(C)n1 [Compound I-0464] | 10 to 100 |
| COC(=O)Nc1cc(Cl)ccc1-c1cc(=O)n(CC(=O)N(C)C2(CO)CCCC2)c(C)n1 [Compound I-0302] | 10 to 100 |
| CCS(=O)(=O)N1CCN(C(=O)c2cccc(Cn3cnc(-c4ccc(Cl)cc4NC(=O)C(C)(C)C)cc3=O)c2)CC1 [Compound I-0501] | 10 to 100 |
| COC(=O)Nc1cc(Cl)ccc1-c1cc(=O)n(CC(=O)NC2(c3ccc(F)cc3)COC2)c(C)n1 [Compound I-0480] | 10 to 100 |
| CC(C)(C)C(=O)Nc1cc(Cl)ccc1-c1cc(=O)n(Cc2cccc(C(=O)Nc3cnccc3O)c2)cn1 [Compound I-0491] | 100 to 1000 |
| CCCCCc1nc(-c2ccc(Cl)cc2)cc(=O)n1C [Compound I-0005] | ≥ 1000 |
| CNC(=O)NC1CCN(C(=O)Cn2c(C)nc(-c3ccc(Cl)cc3NC(=O)OC)cc2=O)CC1 [Compound I-0383] | 10 to 100 |
| CCCCCc1nc(-c2ccc(Cl)cc2)[nH]c(=O)c1Cc1ccc(C(=O)O)cc1 [Compound I-0002] | 100 to 1000 |
| CCCOCc1nc(-c2ccc(Cl)cc2)cc(=O)n1CC(=O)NCC(C)(C)O [Compound I-0213] | 100 to 1000 |
| COC(=O)Nc1cc(Cl)ccc1-c1cc(=O)n(CC(=O)N2CCC(C(N)=O)CC2)c(C)n1 [Compound I-0458] | < 10 |
| COC(=O)Nc1cc(Cl)ccc1-c1cc(=O)n(CC(=O)NCC(C)(C)O)c(C)n1 [Compound I-0413] | 10 to 100 |
| Cc1nc(-c2ccc(F)cc2NC(=O)C(C)(C)C)cc(=O)n1Cc1cccc(C(=O)O)c1 [Compound I-0278] | 10 to 100 |
| COC(=O)Nc1cc(Cl)ccc1-c1cc(=O)n(CC(=O)N2CCN(C(N)=O)CC2)c(C)n1 [Compound I-0459] | 10 to 100 |
| COC(=O)Nc1cc(C#N)ccc1-c1cc(=O)n(CC(=O)N2CCC(O)CC2)c(C)n1 [Compound I-0418] | 10 to 100 |
| Cc1nc(-c2ccc(Cl)cc2NC(=O)C(C)(C)C)cc(=O)n1CC(=O)N1CCC(C(N)=O)CC1 [Compound I-0329] | 10 to 100 |
| N#CCNc1nc(-c2ccc(C#N)cc2)cc(=O)n1Cc1ccccc1 [Compound I-0106] | ≥ 1000 |
| CC(C)(C)C(=O)Nc1cc(Cl)ccc1-c1cc(=O)n(Cc2cccc(C(=O)Nc3cccnc3O)c2)cn1 [Compound I-0492] | 10 to 100 |
| COC(=O)Nc1cc(C#N)ccc1-c1cc(=O)n(CC(=O)NC(C)(C)CO)c(C)n1 [Compound I-0400] | 10 to 100 |
| COC(=O)Nc1cc(C#N)ccc1-c1cc(=O)n(CC(=O)N2CCC(C(N)=O)CC2)c(C)n1 [Compound I-0445] | < 10 |
| O=C(Cn1cnc(-c2ccc(Cl)cc2)cc1=O)NCCNC(=O)c1ccc2nn[nH]c2c1 [Compound I-0443] | ≥ 1000 |
| CCCNc1nc(-c2ccc(Cl)cc2NC(C)=O)cc(=O)n1Cc1ccccc1 [Compound I-0202] | 100 to 1000 |
| CCCCCc1nc(-c2ccc(Cl)cc2)cc(=O)n1CC(=O)NCCCCCC(=O)O [Compound I-0043] | 10 to 100 |
| COC(=O)Nc1cc(Cl)ccc1-c1cc(=O)n(CC(=O)NC(C)C)c(C)n1 [Compound I-0390] | 10 to 100 |
| COC(=O)Nc1cc(Cl)ccc1-c1cc(=O)n(CC(=O)N2CC(C(C)(C)O)C2)c(C)n1 [Compound I-0441] | 100 to 1000 |
| CC(C)(C)OC(=O)Cn1cnc(-c2ccc(Cl)cc2)cc1=O [Compound I-0388] | ≥ 1000 |
| CCCCCc1nc(-c2ccc(Cl)cc2)cc(=O)n1Cc1ccc(C(=O)O)cc1 [Compound I-0008] | 100 to 1000 |
| O=C(Cn1cnc(-c2ccc(Cl)cc2)cc1=O)NCCCNC(=O)c1ccc2[nH]nnc2c1 [Compound I-0460] | ≥ 1000 |
| COC(=O)Nc1cc(Cl)ccc1-c1cc(=O)n(CC(=O)NC(C)(C)C(F)(F)F)c(C)n1 [Compound I-0457] | < 10 |
| CCCCCc1nc(-c2ccc(Cl)cc2)cc(=O)n1CC(=O)NCCN(C)C [Compound I-0032] | 100 to 1000 |

Next, values leading:

| IC50 [nM] | SMILES |
| --- | --- |
| 100 to 1000 | O=C(Cn1c(CCCC(F)(F)F)nc(-c2ccc(Cl)cc2)cc1=O)NCCN1CCNC1=O [Compound I-0121] |
| 10 to 100 | N#CCc1cc(OC(F)(F)F)ccc1-c1cc(=O)n(CC(=O)NC2(C#N)CC2)c(CCCC(F)(F)F)n1 [Compound I-0220] |
| 100 to 1000 | O=C(Cn1c(COCC2CC2)nc(-c2ccc(Cl)cc2)cc1=O)NCC1(CO)CC1 [Compound I-0212] |
| ≥ 1000 | CCCCCNc1nc(-c2ccc(C(F)(F)F)cc2)cc(=O)n1Cc1ccccc1 [Compound I-0004] |
| 100 to 1000 | N#CC1(NC(=O)Cn2c(CCCC(F)(F)F)nc(N3CCC(Cc4ccccc4)C3)cc2=O)CC1 (centres unmarked) [Compound I-0219] |
| 10 to 100 | O=C(Cn1c(CCCC(F)(F)F)nc(-c2ccc(C(F)(F)F)cc2)cc1=O)N1CCC(OCCO)CC1 [Compound I-0354] |
| 10 to 100 | CCCCCc1nc(-c2ccc(Cl)cc2)cc(=O)n1CC(=O)NC1CCS(=O)(=O)CC1 [Compound I-0093] |
| 10 to 100 | CCCCCc1nc(-c2ccc(Cl)cc2)cc(=O)n1CC(=O)N1CCOCC1 [Compound I-0084] |
| 100 to 1000 | CN(CC(N)=O)C(=O)c1cccc(Cn2c(CCCC(F)(F)F)nc(-c3ccc(Cl)cc3)cc2=O)c1 [Compound I-0191] |
| 100 to 1000 | O=C(NCC1(CO)COC1)c1cccc(Cn2c(CCCC(F)(F)F)nc(-c3ccc(Cl)cc3)cc2=O)c1 [Compound I-0194] |
| 100 to 1000 | NC(=O)CCCNC(=O)c1cccc(Cn2c(CCCC(F)(F)F)nc(-c3ccc(Cl)cc3)cc2=O)c1 [Compound I-0184] |
| < 10 | O=C(c1cccc(Cn2c(CCCC(F)(F)F)nc(-c3ccc(Cl)cc3)cc2=O)c1)N1CCC2(COC2)C1 [Compound I-0195] |
| 100 to 1000 | N#CCCCNc1nc(-c2ccc(C#N)cc2)cc(=O)n1Cc1ccccc1 [Compound I-0105] |
| 10 to 100 | CSc1nc(-c2ccc(Cl)cc2NC(=O)C2CC2)cc(=O)n1CC(=O)NC1(C#N)CC1 [Compound I-0295] |
| 10 to 100 | CC(O)CNC(=O)Cn1c(CCCC(F)(F)F)nc(-c2ccc(Cl)cc2)cc1=O (centres unmarked) [Compound I-0119] |
| 10 to 100 | CCNS(=O)(=O)CCNC(=O)Cn1c(CCCC(F)(F)F)nc(-c2ccc(Cl)cc2)cc1=O [Compound I-0145] |
| 10 to 100 | CNC(=O)C1CCN(C(=O)Cn2c(CCCC(F)(F)F)nc(-c3ccc(C(F)(F)F)cc3)cc2=O)CC1 [Compound I-0350] |

| IC50 [nM] | SMILES |
| --- | --- |
| 10 to 100 | CCCCCNc1nc(-c2ccc(C(F)(F)F)cc2)cc(=O)n1Cc1cccc(C(=O)O)c1 [Compound I-0012] |
| < 10 | N#Cc1ccc(-c2cc(=O)n(CC(=O)NC3(C#N)CC3)c(CCCC(F)(F)F)n2)cc1 [Compound I-0227] |
| 100 to 1000 | CCCCCc1nc(-c2ccc(Cl)cc2)cc(=O)n1CC(=O)NCCC(C)O (centres unmarked) [Compound I-0096] |
| 100 to 1000 | N#CCNC(=O)c1cccc(Cn2c(CCCC(F)(F)F)nc(-c3ccc(Cl)cc3)cc2=O)c1 [Compound I-0164] |
| ≥ 1000 | CCCCCc1nc(-c2ccc(Cl)cc2)cc(=O)n1CC(=O)Nc1cc(C2CC2)no1 [Compound I-0099] |
| 10 to 100 | CCCCCNc1nc(-c2ccc(C(F)(F)F)cc2)cc(=O)n1Cc1cccc(C(=O)NCC(=O)O)c1 [Compound I-0015] |
| 100 to 1000 | O=C(NCCO)c1cccc(Cn2c(CCCC(F)(F)F)nc(-c3ccc(Cl)cc3)cc2=O)c1 [Compound I-0172] |
| 10 to 100 | Cc1noc(CNC(=O)Cn2c(CCCC(F)(F)F)nc(-c3ccc(Cl)cc3)cc2=O)n1 [Compound I-0141] |
| 10 to 100 | Cc1nc(-c2ccc(Cl)cc2NC(=O)C(C)(C)C)cc(=O)n1CC(=O)NC1(C#N)CC1 [Compound I-0376] |
| 100 to 1000 | O=C(c1cccc(Cn2c(CCCC(F)(F)F)nc(-c3ccc(Cl)cc3)cc2=O)c1)N(CCO)CCO [Compound I-0197] |
| 10 to 100 | O=C(O)c1nc(Cn2c(CCCC(F)(F)F)nc(-c3ccc(Cl)cc3)cc2=O)cs1 [Compound I-0294] |
| 100 to 1000 | CC(C)(O)CN1CCN(C(=O)Cn2c(CCCC(F)(F)F)nc(-c3ccc(Cl)cc3)cc2=O)CC1 [Compound I-0148] |
| 100 to 1000 | COCCCc1nc(-c2ccc(Cl)cc2)cc(=O)n1CC(=O)NC1(C#N)CC1 [Compound I-0229] |
| 100 to 1000 | NC(=O)CNC(=O)c1cccc(Cn2c(CCCC(F)(F)F)nc(-c3ccc(Cl)cc3)cc2=O)c1 [Compound I-0168] |
| 10 to 100 | CCCCCc1nc(-c2ccc(Cl)cc2)cc(=O)n1CC(=O)NC(C)(C)C(=O)OC [Compound I-0114] |
| 10 to 100 | N#CC1(NC(=O)Cn2c(CCCC(F)(F)F)nc(-c3c(F)cc(Cl)cc3F)cc2=O)CC1 [Compound I-0234] |
| 10 to 100 | CCCCCc1nc(-c2ccc(Cl)cc2)cc(=O)n1CC(=O)NCC(=O)O [Compound I-0065] |
